# Assay results reported in patent publication US6201116A, “Halide indicators” (The Regents of the University of California, priority 1999, dated 2001).
# Assays:
# cells [1] = assay: Toxicity in assays of cell growth; type: cell-based; details: 2 mM in culture medium for 72 h
# Method: LZQ and LMQ were loaded into cells efficiently by hypotonic shock or passive incubation. […] As was found for SPQ, LZQ and LMQ were non-toxic to cells in assays of cell growth (2 mM in culture medium for 72 h).
# [2] = tested on: 3T3 fibroblasts expressing CFTR; assay: Intracellular sensitivity to I^-; type: cell-based, mouse
# Method: Fluorescence microscopy. Fluorescence microscopy measurements were performed as described previously (Chao et al., 1989). Briefly, coverglasses were mounted in a 0.5 ml perfusion chamber in which the cell-free glass surface made contact with an oil immersion objective (Nikon ×40 magnification, numerical aperture[NA] 1.3). Cell fluorescence was excited at 365±10 nm (SPQ) or 420 nm±10 nm (LZQ and LMQ). Emitted fluorescence was detected by a photomultiplier in a Nikon inverted epifluorescence microscope using a 410 nm dichroic mirror and 420 nm barrier filter (SPQ) or a 455 nm dichroic mirror and 500 nm barrier filter (LZQ). For cells colabeled with SPQ and LZQ, SPQ fluorescence was excited at 365±10 nm and detected using a 410 nm dichroic mirror and 455±30 nm interference filter. Confocal fluorescence micrographs were obtained using a Nipkow wheel confocal microscope and cooled CCD camera detector using a ×60 oil immersion objective (Nikon, NA 1.4). […]
# A time course of LZQ fluorescence during perfusion with physiological saline at 23° C. was generated. A small group of 20-30 cells was illuminated continuously and fluorescence was detected by a photomultiplier using an ×40, 1.3 NA objective. Cellular fluorescence decreased slowly at a rate of 2.5% per hour. […] Background fluorescence (in non-labeled cells) was generally <5% of the fluorescence of LZQ-labeled cells. […]
# CFTR = assay: I^-/NO3^- exchange in forskolin-stimulated CFTR-expressing cells; type: cell-based
# Method: Transport measurements. Cells were labeled with LZQ or SPQ by hypotonic shock (loading buffer/water 1:1 containing 2 mM LZQ or 7.5 mM SPQ) for 5 min at room temperature or by overnight incubation with indicators in the cell culture medium. Extracellular indicator was removed by washing just prior to measurements. For fluorescence microscopy, glass coverslips were then mounted in a perfusion chamber (flow ~2 ml/min) in which solutions were exchanged using a 4-way valve. For microplate reader measurements, cells in 96-well plates were bathed in […] of the `1st buffer` (see Table 3) and […] of the Cl^- -containing, I^- -free solution was injected into the well to drive Cl^- /I^- exchange (protocol 1). For stimulation of CFTR using protocol 2, […] of a 1:8 mixture of the 1st buffer and the 2nd buffer containing […] forskolin, 2 mM CPT-cAMP and […] IBMX was added.
# For determination of the absolute I^- transport rates, the time course of intracellular [I^- ] was computed from the time course of SPQ or LZQ fluorescence using the modified Stem-Volmer equation [I^- ]={([Fo -Fb ]/[F-Fb ])-1}/KI, where Fo is fluorescence intensity in the absence of I^-, Fb is background fluorescence of unlabeled cells, and KI the intracellular quenching constant for I^- (see Results). I^- transport rates were calculated from the slope of a linear regression of the first 10 time points after changing perfusate composition.
# The utility of LZQ for functional measurement of CFTR expression was tested. […] A comparison of data obtained for cells loaded with LZQ and SPQ initially loaded with I^-, followed by replacement of I^- with NO3^- in the absence of forskolin, followed by addition of forskolin was also performed. The initial rates of forskolin-stimulated I^- efflux (SPQ: 0.09±0.02 mM/s; LZQ: 0.08±0.01 mM/s) were similar. Measurements of Cl^- /NO3^- exchange were also carried out by measuring SPQ fluorescence using cells labeled with SPQ alone vs. cells colabeled with SPQ and LZQ.
# cells [3] = assay: Photobleaching in cells; type: cell-based
# Method: Fluorescence microscopy. Fluorescence microscopy measurements were performed as described previously (Chao et al., 1989). Briefly, coverglasses were mounted in a 0.5 ml perfusion chamber in which the cell-free glass surface made contact with an oil immersion objective (Nikon ×40 magnification, numerical aperture[NA] 1.3). Cell fluorescence was excited at 365±10 nm (SPQ) or 420 nm±10 nm (LZQ and LMQ). Emitted fluorescence was detected by a photomultiplier in a Nikon inverted epifluorescence microscope using a 410 nm dichroic mirror and 420 nm barrier filter (SPQ) or a 455 nm dichroic mirror and 500 nm barrier filter (LZQ). For cells colabeled with SPQ and LZQ, SPQ fluorescence was excited at 365±10 nm and detected using a 410 nm dichroic mirror and 455±30 nm interference filter. Confocal fluorescence micrographs were obtained using a Nipkow wheel confocal microscope and cooled CCD camera detector using a ×60 oil immersion objective (Nikon, NA 1.4). LZQ-labeled cells were viewed using a fluorescein filter set (excitation 480±15 nm, emission 520±20 nm).
# A time course of LZQ fluorescence during perfusion with physiological saline at 23° C. was generated. A small group of 20-30 cells was illuminated continuously and fluorescence was detected by a photomultiplier using an ×40, 1.3 NA objective. Cellular fluorescence decreased slowly at a rate of 2.5% per hour. To determine the relative contributions of indicator leakage vs. photobleaching to the slow decline in fluorescence, the perfused cells were illuminated intermittently. […] Background fluorescence (in non-labeled cells) was generally <5% of the fluorescence of LZQ-labeled cells.
# [4] = In vitro fluorescence quenching by I^- (Stern-Volmer); type: physicochemical
# Method: Computations. In vitro fluorescence quenching studies were carried out at peak excitation and emission wavelengths. Microliter aliquots of the sodium salt of the quenching anion (1 M) were added to indicator solution in 5 mM sodium phosphate (pH 7.2, unless indicated otherwise). Fluorescence intensities in the absence (Fo) and presence (F) of quencher anion ([Q]) were measured to give the Stem-Volmer constant (Kq) as defined by: Fo /F=1+Kq [Q].
smiles,measurement,setting,value
"[O-]c1nc2c(N[C@@H]3O[C@H](CO)[C@@H](O)[C@H]3O)ncnc2[n+]2ccccc12 [I, 4-(β-D-ribofuranosylamino)-pyrido [2,1-h] pteridin-11-ium-5-olate]",toxicity to cells (cell growth),cells [1],non-toxic
same,"intracellular Stern-Volmer constant, quenching by I^-",[2]; high [K^+] and ionophores,26 M⁻¹
same,cellular fluorescence response to I^-,[2]; repeated addition and removal of 50 mM I^-,"large, reversible changes in fluorescence"
same,initial rate of forskolin-stimulated I^- efflux,"CFTR; I^- replaced by NO3^- without forskolin, then forskolin added",0.08 ± 0.01 mM/s
same,computed I^- efflux rate,"CFTR; forskolin-stimulated CFTR-expressing cells, I^-/NO3^- exchange",0.09 ± 0.03 mM/s
same,computed I^- influx rate,"CFTR; forskolin-stimulated CFTR-expressing cells, I^-/NO3^- exchange, S.E., n=3",0.25 ± 0.01 mM/s
same,Cellular properties: photobleaching,cells [3]; Table 4,slow
same,"photobleaching, intermittent vs. continuous illumination",cells [3]; low light level conditions,absence of photobleaching
same,"Ksv (I^-), Stern Volmer quenching constant",[4]; Table 4,60 M⁻¹
same,"Stern-Volmer constant, quenching by I^-",[4]; in water (or saline),60 M⁻¹
same,effect of pH on I^- sensitivity,[4]; pH 4.5-8,not affected
